The species entered for this assay is Bos taurus. In words: Inhibitory effect by measuring the ATP-dependent [Ca2+] uptake in membranes isolated from bovine cerebellum. Format: functional.

SMILES strings stand for the structures. pIC50: −log10 of the molar value.

The pIC50 is the negative decadic logarithm of the IC50, by convention in mol/L. Low readings indicate a high IC50, high ones a low IC50.

In turn, `C/C=C(\C)C(=O)O[C@H]1C(C)=C2[C@H]([C@@H]1OC(=O)CCCCCCC)[C@@](C)(OC(C)=O)C[C@H](OC(=O)CCC)[C@@]1(O)[C@H]2OC[C@@]1(C)O` gave a pIC50 (Bos taurus, Cerebellum) of 9.74. Still for that read-out and setting: the same measure for `CC=C(C)C(=O)O[C@H]1C(C)=C2[C@H]([C@@H]1OC(=O)CCCCCCC)[C@@](C)(OC(C)=O)C[C@H](OC(=O)CCC)[C@@]1(O)[C@H]2OC(=O)[C@@]1(C)O` [THAPSIGARGIN]: 9.58. For `C/C=C(/C)C(=O)O[C@H]1C(C)=C2[C@H]([C@@H]1OC(=O)CCCCCCC)[C@@](C)(OC(C)=O)C[C@H](OC(=O)CCC)[C@@]1(O)[C@H]2OC(=O)[C@@]1(C)O` [THAPSIGARGIN], the pIC50 was 9.77.

The record behind these values is ChEMBL document CHEMBL1127257, “Ca2+-ATPase inhibitory activity of a locked analogue of thapsigargin” (Bioorg Med Chem Lett, 1994).
